Experimental data as given in publication PMC7483469, “The overexpression of OsACBP5 protects transgenic rice against necrotrophic, hemibiotrophic and biotrophic pathogens” (Scientific Reports, 2020).

Molecular target: T1, (His)6-OsACBP5; rOsACBP5 (Oryza sativa, UniProt Q10P83)
T1 construct: gene ACBP5; N-terminal (His)6-tag, plasmid pOS543 (from pRSETA), E. coli BL21(DE3) Star pLysS, soluble fraction, HisTrap
T1 sequence (Q10P83 32-569): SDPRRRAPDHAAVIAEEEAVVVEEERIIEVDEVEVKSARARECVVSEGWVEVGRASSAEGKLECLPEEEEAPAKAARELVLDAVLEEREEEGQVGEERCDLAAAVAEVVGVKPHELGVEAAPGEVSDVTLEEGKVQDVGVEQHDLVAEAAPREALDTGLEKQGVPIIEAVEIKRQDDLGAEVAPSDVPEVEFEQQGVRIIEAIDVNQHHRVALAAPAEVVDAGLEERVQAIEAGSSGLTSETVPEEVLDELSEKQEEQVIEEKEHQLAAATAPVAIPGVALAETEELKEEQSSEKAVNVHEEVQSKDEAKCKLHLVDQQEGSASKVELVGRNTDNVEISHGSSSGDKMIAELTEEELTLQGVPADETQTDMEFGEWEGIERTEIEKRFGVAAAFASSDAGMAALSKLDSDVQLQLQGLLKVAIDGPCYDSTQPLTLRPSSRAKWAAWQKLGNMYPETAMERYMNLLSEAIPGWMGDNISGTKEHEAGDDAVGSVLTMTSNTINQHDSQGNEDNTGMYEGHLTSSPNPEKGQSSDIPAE
Experiment: isothermal titration calorimetry
Format: binding

CC/C=C\C/C=C\C/C=C\CCCCCCCC(=O)SCCNC(=O)CCNC(=O)[C@H](O)C(C)(C)COP(=O)(O)OP(=O)(O)OC[C@H]1O[C@@H](n2cnc3c(N)ncnc32)[C@H](O)[C@@H]1OP(=O)(O)O [18:3-acyl-CoA ester]
Kd: 59.5 nM
